# From US11400136B2, “Methods and compositions for treating a microbial infection” (priority 2017, dated 2022)
# Entries after “also recorded” stand apart in the source; their conditions may differ. Like-named read-outs stand apart in the source and are kept apart here.
# Assays:
# S. pyogenes M1 [1] = assay type: in vivo, mouse
# S. pyogenes M1 [2] = assay type: cell-based, mouse
# S. pyogenes M1 [3] = assay type: cell-based, Streptococcus pyogenes; conditions: 1 h
# S. pyogenes M1 [4] = assay type: in vivo, mouse; remark: listed apart in the source
# skin punch biopsies = assay: CGRP release assay from skin explants; assay type: in vivo, mouse; conditions: RTX-treated vs vehicle; 7 h
# Procedure: CGRP release assay from skin explants. Skin punch biopsies (12 mm) were collected from the uninfected or infected flank skin samples of euthanized mice, and rapidly transferred to 24-well plates containing 1 mL of DMEM. Explants were incubated at 32° C. with gentle shaking (150 rpm) for 30 min.
# [5] = test system: TRPV1-positive nociceptors; assay: Ablation of TRPV1+ nociceptors, quantification of DRG/vagal ganglia neurons; conditions: mouse, in vivo
# S. aureus USA300 = assay: S. aureus (MRSA) lung infection / lethal pneumonia; assay type: in vivo, mouse
# [6] = test system: Streptococcus pneumoniae strain WU-2; assay: S. pneumoniae lung infection; assay type: in vivo, mouse; conditions: RTX vs vehicle; P=0.13
# Klebsiella pneumoniae = assay: K. pneumoniae lung infection; assay type: in vivo, mouse; conditions: RTX vs vehicle
# [7] = test system: Pseudomonas aeruginosa strain PA01V; assay: P. aeruginosa lung infection; assay type: in vivo, mouse; conditions: RTX vs vehicle
# [8] = Heat sensitivity (hot plate and tail-flick assays); assay type: in vivo, mouse; conditions: RTX vs vehicle
# Procedure: Behavior tests. For behavioral assays, observers were blinded to treatment group and genotype. To measure heat sensitivity, mice were placed on a hot plate set at 52° C. (IITC Life Science). Latency to hindpaw lifting/licking/flinching was recorded, and stopped at a maximum of 60 seconds. For tail-flick assay, mice were kept vertically in a relaxed fashion with their tail immersed in a temperature-controlled water bath maintained at 52° C. The latency to a tail flick was recorded, with maximum of 60 seconds.
# neutrophils = assay: Pulmonary intravital microscopy of neutrophils; assay type: in vivo, mouse; conditions: RTX
# Procedure: Pulmonary intravital microscopy. […]. To visualize neutrophils and endothelium, 3.5 μg Alexa Fluor 594 conjugated anti-Ly6G antibody (clone 1A8, BioLegend) and 5 μg Alexa Fluor 647 conjugated anti-CD31 antibody (clone MEC13.3, BioLegend) were injected intravenously. Mice were placed on a heating pad maintained at 37° C. and connected to mechanical ventilation (Harvard Apparatus) after a tracheostomy is performed. Mice were kept in a right lateral decubitus position and their left lung was exposed after a thoracotomy and rib resection. A portion of the lung was immobilized via a gentle vacuum chamber with a glass slide fitted on top. A resonant-scanner confocal microscope (Leica SP8) equipped with a white light laser and three HyD spectral detectors and a 25×/0.9 water objective lens were used for intravital microscopy. Images were acquired every 10 s for a total of 10 min, three to five fields of view were observed. All videos and images were processed and analyzed using Leica software and Volocity software. For neutrophil behavior analysis, tethering was defined as rapid movement with blood flow and stop for less than 30 s. Adhesion was defined as neutrophils that remained stationary for 30 s or longer. Crawling was defined as polarized cells that maintained continuous contact with the endothelium while changing physical location for at least 30 s. Random neutrophils were tracked manually in 10-min videos by using Volocity software.
# [9] = assay type: in vivo, mouse; conditions: RTX-treated vs vehicle; steady state
# Procedure: Vital sign measurements. Heart rate, oxygen saturation and perfusion were measured under isoflurane anesthesia by Pulse Oximetry using the Kent Scientific PhysioSuite (Kent Scientific Corporation). For accuracy, measurements were performed three independent times on different days for the same mice, and values represent the average of three measurements. Pulse Oximetry could not be used on MRSA infected mice because they could not survive isoflurane anesthesia, and thus the measurements were only performed at steady state. Respiratory rates were determined by manually recording number of breaths per minute and averaged over three measurements. Core body temperature was measured using a rectal thermal probe (Bioseb).
compound,measurement,setting,value
NCCCC[C@H](NC(=O)[C@@H](Cc1cc(Br)c(O)c(Br)c1)NC(=O)N1CCC(N2Cc3ccccc3NC2=O)CC1)C(=O)N1CCN(c2ccncc2)CC1 [BIBN4096],abscess formation,"S. pyogenes M1 [1]; mouse, in vivo, 30 mg/kg",significantly decreases abscess formation; also recorded: reduced abscesses
same,dermonecrotic lesion size,"S. pyogenes M1 [1]; mouse, in vivo, ip, 30 mg/kg",significantly smaller lesion formation; also recorded: smaller dermonecrotic lesions
same,neutrophil (CD11b+Ly6G+) recruitment to infected area,"S. pyogenes M1 [1]; treated 2 h after infection, 1 day after injection",increased the recruitment of neutrophils
same,"bacterial load recovery, flank skin and spleen","S. pyogenes M1 [1]; treated 2 h after infection, 9 days after injection of bacteria",decreases flank skin and spleen bacterial burdens; also recorded: increased bacterial clearance in the skin
same,neutrophil killing of S. pyogenes suppressed by DRG neurons,S. pyogenes M1 [2],enhances neutrophil killing of bacteria; also recorded: prevented the suppressive effects
same,direct effects on S. pyogenes growth or viability,S. pyogenes M1 [3],did not have direct effects
CC(C)Cc1ccc(C(C)C(=O)O)cc1 (centres unmarked) [Ibuprofen],heat hyperalgesia,S. pyogenes M1 [4]; ibuprofen 50 mg/kg,had no effect
same,mechanical hyperalgesia,S. pyogenes M1 [4]; ibuprofen 50 mg/kg,had no effect
"C=C(C)[C@]12C[C@@H](C)[C@@]34O[C@](Cc5ccccc5)(O[C@@H]1[C@@H]3C=C(COC(=O)Cc1ccc(O)c(OC)c1)C[C@]1(O)C(=O)C(C)=C[C@@H]41)O2 [RTX, Resiniferatoxin]",dermonecrosis,"S. pyogenes M1 [1]; RTX 30, 70, 100 μg/kg s.c., infection 4 weeks later",significantly less dermonecrosis
same,"S. pyogenes in lesions, quantitative cultures",S. pyogenes M1 [1]; RTX-treated vs vehicle,log-fold reductions of S. pyogenes
same,body weight regain,S. pyogenes M1 [1]; RTX-treated vs vehicle,regained body weight faster
same,skin abscess size,S. pyogenes M1 [1]; RTX-treated vs vehicle,resolved faster
same,"monocytes, other myeloid cells, CD11b-CD45+ leukocytes (FACS)","S. pyogenes M1 [1]; RTX-treated vs vehicle, 1 day",not detected
same,skin histopathology,"S. pyogenes M1 [1]; RTX-treated, day 3",containment of the bacterial infection within a circumscribed abscess containing polymorphonuclear leukocytes
same,S. pyogenes cultured from spleens,"S. pyogenes M1 [1]; RTX-treated, day 9",did not yield detectable bacteria
same,heat hyperalgesia,S. pyogenes M1 [4]; RTX-treated,abrogated
same,mechanical hyperalgesia,S. pyogenes M1 [4]; RTX-treated,abrogated
same,spontaneous pain behaviors,S. pyogenes M1 [4]; RTX-treated,abrogated
same,CGRP release in infected tissues,skin punch biopsies,lower CGRP release in infected tissues
same,TRPV1+ and CGRP+ neurons in DRG (and vagal/nodose ganglia),[5],significant loss of CGRP+ nociceptive neurons; also recorded: led to loss of TRPV1+ and CGRP+ neurons; also recorded: loss of TRPV1+ and CGRP+ neurons in DRG and VG
same,mice succumbed to / died from infection,S. aureus USA300; RTX-treated mice given GR1 or control IgG,0%
same,lung bacterial burdens / clearance,"S. aureus USA300; RTX-treated vs vehicle, 12 h",significantly improved; also recorded: reduced lung bacterial burdens
same,core body temperature,"S. aureus USA300; RTX-treated vs vehicle, lethal MRSA",improved maintenance of core-body temperature
same,survival,"S. aureus USA300; RTX-treated vs vehicle, lethal MRSA intra-tracheal",significantly improved survival; also recorded: the majority of RTX-treated mice survived
same,"BALF total protein, TNF-α, IL-6 and CXCL-1 induction","S. aureus USA300; RTX, 6 h",faster kinetics in the induction
same,CD11b+Ly6G+ lung neutrophil recruitment,"S. aureus USA300; RTX, 6 h and 12 h post-infection",striking increase
same,gram-positive bacterial colonies in lung (Brown and Brenn),"S. aureus USA300; RTX, 12 h and 24 h",few bacterial colonies
same,lung cellular immune influx (H&E),"S. aureus USA300; RTX, 12 h and 24 h post-infection",increased cellular immune influx
same,"BALF TNF-α, IL-6 and CXCL-1 levels","S. aureus USA300; RTX, 12 h post-infection",markedly reduced
same,CGRP levels in BALF,"S. aureus USA300; RTX, 12 h post-infection",significantly reduced
same,"bacterial load recovery, sub-lethal dose","S. aureus USA300; RTX, S. aureus 2-4×10^7 CFU",enhanced protection
same,survival,[6],modest but non-significant protective effect
same,survival,Klebsiella pneumoniae,did not impact death
same,survival,[7],did not impact death
same,latency to noxious heat,[8],increased latency to noxious heat
same,neutrophil crawling distances,neutrophils,significantly increased crawling distances
same,neutrophil vascular crawling,neutrophils,a significant proportion of neutrophils demonstrated vascular crawling
same,neutrophils recruited to pulmonary capillaries,neutrophils; 4 h post-infection GFP-S. aureus,significantly more neutrophils
same,"oxygen saturation, heart rate, perfusion, respiratory rates",[9],did not differ
"CGRP8-37 (VTHRLAGLLSRSGGVVKNNFVPTNVGSKAF; Calcitonin gene-related peptide 1; UniProt P06881 90-119, looked up, fragment)",neutrophil killing of S. pyogenes suppressed by DRG neurons,S. pyogenes M1 [2],enhances neutrophil killing of bacteria; also recorded: prevented the suppressive effects
same,direct effects on S. pyogenes growth or viability,S. pyogenes M1 [3],did not have direct effects
same,survival,"S. aureus USA300; CGRP8-37 800 ng i.p. at -24, -2, 12, 24, 36, 48 h",improved survival
same,core body temperature maintenance,S. aureus USA300; CGRP8-37 800 ng i.p. before and after infection,improved
same,core body temperature,S. aureus USA300; CGRP8-37 7.5 μg i.p. after infection,significantly improved
same,survival,"S. aureus USA300; CGRP8-37 7.5 μg i.p. at 4, 16, 24 h after infection",significantly improved survival
same,core-body temperature,S. aureus USA300; CGRP8-37 i.p. 12 hours prior and 12 hours after infection,maintenance of core-body temperature
same,survival,"S. aureus USA300; CGRP8-37 i.p. 12 hours prior and 12 hours after infection, 10^7 CFU",significantly improved survival
